Assay results taken from the supplement of paper PMC9663587.

Key:
Flavopiridol [1] = compound: T1, CN1CC[C@H](c2c(O)cc(O)c3c(=O)cc(-c4ccccc4Cl)oc23)[C@H](O)C1 [Flavopiridol]; experiment: increase in dead-cell fraction, 72 h; higher = more death;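 note: breast cancer cell lines in 384-well plates, stained with Hoechst plus LIVE/DEAD far red dye and imaged, cells above an LDR intensity threshold counted dead, Hoechst-negative corpses included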
LEE011/Ribociclib [2] = compound: T2, CN(C)C(=O)c1cc2cnc(Nc3ccc(N4CCNCC4)cn3)nc2n1C1CCCC1 [LEE011/Ribociclib]; experiment: as above
[3] = compound: CCN1CCN(Cc2ccc(Nc3ncc(F)c(-c4cc(F)c5nc(C)n(C(C)C)c5c4)n3)nc2)CC1; experiment: as above
[4] = compound: CC(=O)c1c(C)c2cnc(Nc3ccc(N4CCNCC4)cn3)nc2n(C2CCCC2)c1=O; experiment: as above
Flavopiridol [5] = compound: T1, Flavopiridol; experiment: GR value, 72 h; higher = faster growth (1 = untreated, <0 = killing);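 note: breast cancer and non-malignant breast epithelial lines, nine half-log doses, viable cells counted by Hoechst and LIVE/DEAD dye imaging versus time-zero plates and DMSO controls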
LEE011/Ribociclib [6] = compound: T2, LEE011/Ribociclib; experiment: as above
[7] = compound: CCN1CCN(Cc2ccc(Nc3ncc(F)c(-c4cc(F)c5nc(C)n(C(C)C)c5c4)n3)nc2)CC1; experiment: as above
THZ1 = compound: CN(C)C/C=C/C(=O)Nc1ccc(C(=O)Nc2cccc(Nc3ncc(Cl)c(-c4c[nH]c5ccccc45)n3)c2)cc1 [THZ1]; experiment: as above
[8] = compound: CC(=O)c1c(C)c2cnc(Nc3ccc(N4CCNCC4)cn3)nc2n(C2CCCC2)c1=O; experiment: as above
BSJ-03-123 = compound: CC(=O)c1c(C)c2cnc(Nc3ccc(N4CCN(CCOCCOCCOCCNC(=O)COc5cccc6c5C(=O)N(C5CCC(=O)NC5=O)C6=O)CC4)cn3)nc2n(C2CCCC2)c1=O [BSJ-03-123]; experiment: as above
Neratinib/HKI272 = compound: CCOc1cc2ncc(C#N)c(Nc3ccc(OCc4ccccn4)c(Cl)c3)c2cc1NC(=O)/C=C/CN(C)C [Neratinib/HKI272]; experiment: as above
[9] = compound: CCc1cnn2c(NCc3ccc[n+]([O-])c3)cc(N3CCCC[C@H]3CCO)nc12; experiment: as above

## MDAMB453
Flavopiridol [1]; 0.0001 µM
  increase in dead-cell fraction: -0.0017
Flavopiridol [1]; 0.0003162 µM
  increase in dead-cell fraction: -0.0022
Flavopiridol [1]; 0.001 µM
  increase in dead-cell fraction: -0.0038
Flavopiridol [1]; 0.003162 µM
  increase in dead-cell fraction: -0.0016
Flavopiridol [1]; 0.01 µM
  increase in dead-cell fraction: -0.0001
Flavopiridol [1]; 0.03162 µM
  increase in dead-cell fraction: -0.0034
Flavopiridol [1]; 0.1 µM
  increase in dead-cell fraction: 0.0018
Flavopiridol [1]; 0.3162 µM
  increase in dead-cell fraction: 0.0317
Flavopiridol [1]; 1 µM
  increase in dead-cell fraction: 0.168
LEE011/Ribociclib [2]; 0.001 µM
  increase in dead-cell fraction: 0.0026
LEE011/Ribociclib [2]; 0.003162 µM
  increase in dead-cell fraction: 0.0128
LEE011/Ribociclib [2]; 0.01 µM
  increase in dead-cell fraction: 0.0136
LEE011/Ribociclib [2]; 0.03162 µM
  increase in dead-cell fraction: 0.016
LEE011/Ribociclib [2]; 0.1 µM
  increase in dead-cell fraction: 0.025
LEE011/Ribociclib [2]; 0.3162 µM
  increase in dead-cell fraction: 0.0275
LEE011/Ribociclib [2]; 1 µM
  increase in dead-cell fraction: 0.0212
LEE011/Ribociclib [2]; 3.162 µM
  increase in dead-cell fraction: 0.0344
LEE011/Ribociclib [2]; 10 µM
  increase in dead-cell fraction: 0.05
[3]; 0.001 µM
  increase in dead-cell fraction: 0.0151
[3]; 0.003162 µM
  increase in dead-cell fraction: 0.0243
[3]; 0.01 µM
  increase in dead-cell fraction: 0.117
[3]; 0.03162 µM
  increase in dead-cell fraction: 0.134
[3]; 0.1 µM
  increase in dead-cell fraction: 0.124
[3]; 0.3162 µM
  increase in dead-cell fraction: 0.104
[3]; 1 µM
  increase in dead-cell fraction: 0.15
[3]; 3.162 µM
  increase in dead-cell fraction: 0.147
[3]; 10 µM
  increase in dead-cell fraction: 0.626
[4]; 0.0003162 µM
  increase in dead-cell fraction: 0.0265
[4]; 0.001 µM
  increase in dead-cell fraction: 0.0374
[4]; 0.003162 µM
  increase in dead-cell fraction: 0.016
[4]; 0.01 µM
  increase in dead-cell fraction: 0.0502
[4]; 0.03162 µM
  increase in dead-cell fraction: 0.0578
[4]; 0.1 µM
  increase in dead-cell fraction: 0.115
[4]; 0.3162 µM
  increase in dead-cell fraction: 0.124
[4]; 1 µM
  increase in dead-cell fraction: 0.123
[4]; 3.162 µM
  increase in dead-cell fraction: 0.117
Flavopiridol [5]; 0.0001 µM
  GR value: 1.06 GR
Flavopiridol [5]; 0.0003162 µM
  GR value: 1.04 GR
Flavopiridol [5]; 0.001 µM
  GR value: 0.944 GR
Flavopiridol [5]; 0.003162 µM
  GR value: 0.819 GR
Flavopiridol [5]; 0.01 µM
  GR value: 0.916 GR
Flavopiridol [5]; 0.03162 µM
  GR value: 1.05 GR
Flavopiridol [5]; 0.1 µM
  GR value: 0.671 GR
Flavopiridol [5]; 0.3162 µM
  GR value: 0.0173 GR
Flavopiridol [5]; 1 µM
  GR value: -0.186 GR
LEE011/Ribociclib [6]; 0.001 µM
  GR value: 0.717 GR
LEE011/Ribociclib [6]; 0.003162 µM
  GR value: 0.647 GR
LEE011/Ribociclib [6]; 0.01 µM
  GR value: 0.562 GR
LEE011/Ribociclib [6]; 0.03162 µM
  GR value: 0.637 GR
LEE011/Ribociclib [6]; 0.1 µM
  GR value: 0.461 GR
LEE011/Ribociclib [6]; 0.3162 µM
  GR value: 0.365 GR
LEE011/Ribociclib [6]; 1 µM
  GR value: 0.273 GR
LEE011/Ribociclib [6]; 3.162 µM
  GR value: 0.225 GR
LEE011/Ribociclib [6]; 10 µM
  GR value: 0.208 GR
[7]; 0.001 µM
  GR value: 0.908 GR
[7]; 0.003162 µM
  GR value: 0.615 GR
[7]; 0.01 µM
  GR value: 0.211 GR
[7]; 0.03162 µM
  GR value: 0.0514 GR
[7]; 0.1 µM
  GR value: 0.0343 GR
[7]; 0.3162 µM
  GR value: 0.0775 GR
[7]; 1 µM
  GR value: 0.0548 GR
[7]; 3.162 µM
  GR value: 0.0127 GR
[7]; 10 µM
  GR value: -0.787 GR
THZ1; 0.0001 µM
  GR value: 1 GR
THZ1; 0.0003162 µM
  GR value: 0.935 GR
THZ1; 0.001 µM
  GR value: 1.04 GR
THZ1; 0.003162 µM
  GR value: 0.716 GR
THZ1; 0.01 µM
  GR value: 0.61 GR
THZ1; 0.03162 µM
  GR value: 0.0146 GR
THZ1; 0.1 µM
  GR value: -0.0991 GR
THZ1; 0.3162 µM
  GR value: -0.106 GR
THZ1; 1 µM
  GR value: -0.277 GR
[8]; 0.0003162 µM
  GR value: 1.08 GR
[8]; 0.001 µM
  GR value: 1.06 GR
[8]; 0.003162 µM
  GR value: 0.994 GR
[8]; 0.01 µM
  GR value: 0.851 GR
[8]; 0.03162 µM
  GR value: 0.607 GR
[8]; 0.1 µM
  GR value: 0.278 GR
[8]; 0.3162 µM
  GR value: 0.105 GR
[8]; 1 µM
  GR value: 0.0968 GR
[8]; 3.162 µM
  GR value: 0.0641 GR
BSJ-03-123; 0.001 µM
  GR value: 0.989 GR
BSJ-03-123; 0.003162 µM
  GR value: 0.922 GR
BSJ-03-123; 0.01 µM
  GR value: 0.874 GR
BSJ-03-123; 0.03162 µM
  GR value: 0.843 GR
BSJ-03-123; 0.1 µM
  GR value: 0.841 GR
BSJ-03-123; 0.3162 µM
  GR value: 0.699 GR
BSJ-03-123; 1 µM
  GR value: 0.639 GR
BSJ-03-123; 3.162 µM
  GR value: 0.575 GR
BSJ-03-123; 10 µM
  GR value: -0.011 GR
Neratinib/HKI272; 0.0003162 µM
  GR value: 0.988 GR
Neratinib/HKI272; 0.001 µM
  GR value: 0.937 GR
Neratinib/HKI272; 0.003162 µM
  GR value: 0.825 GR
Neratinib/HKI272; 0.01 µM
  GR value: 0.596 GR
Neratinib/HKI272; 0.03162 µM
  GR value: 0.44 GR
Neratinib/HKI272; 0.1 µM
  GR value: 0.366 GR
Neratinib/HKI272; 0.3162 µM
  GR value: 0.139 GR
Neratinib/HKI272; 1 µM
  GR value: -0.0602 GR
Neratinib/HKI272; 3.162 µM
  GR value: -0.339 GR
[9]; 0.0001 µM
  GR value: 1.05 GR
[9]; 0.0003162 µM
  GR value: 1.06 GR
[9]; 0.001 µM
  GR value: 1.04 GR
[9]; 0.003162 µM
  GR value: 1.03 GR
[9]; 0.01 µM
  GR value: 0.645 GR
[9]; 0.03162 µM
  GR value: -0.173 GR
[9]; 0.1 µM
  GR value: -0.28 GR
[9]; 0.3162 µM
  GR value: -0.238 GR
[9]; 1 µM
  GR value: -0.242 GR
